Experimental data taken from article PMC12780224 (Nature Communications, 2025).

Tests used:
RdSqgA = target: T1, RdSqgA (Roseobacter denitrificans, UniProt Q167F5); test: LC-MS of SQ formation; type: biochemical; settings: 200 mM NH4HCO3 pH 7.0, room temperature overnight
T1 sequence (Q167F5 1-366): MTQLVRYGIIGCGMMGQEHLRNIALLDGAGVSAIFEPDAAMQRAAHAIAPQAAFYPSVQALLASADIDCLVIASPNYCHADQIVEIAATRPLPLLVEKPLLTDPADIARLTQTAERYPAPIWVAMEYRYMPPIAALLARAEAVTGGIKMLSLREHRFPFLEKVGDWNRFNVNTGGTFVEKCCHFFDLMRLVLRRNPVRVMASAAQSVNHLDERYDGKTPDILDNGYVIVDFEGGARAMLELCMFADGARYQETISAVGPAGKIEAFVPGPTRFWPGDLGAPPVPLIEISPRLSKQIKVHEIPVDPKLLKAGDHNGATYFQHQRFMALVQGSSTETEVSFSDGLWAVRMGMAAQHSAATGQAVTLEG

CtSqgA = target: T2, CtSqgA (Chaetoceros tenuissimus, UniProt A0AAD3HCU0); test: sulfoquinovosidase activity assay; type: biochemical; settings: details only in supplement
T2 sequence (A0AAD3HCU0 1-457): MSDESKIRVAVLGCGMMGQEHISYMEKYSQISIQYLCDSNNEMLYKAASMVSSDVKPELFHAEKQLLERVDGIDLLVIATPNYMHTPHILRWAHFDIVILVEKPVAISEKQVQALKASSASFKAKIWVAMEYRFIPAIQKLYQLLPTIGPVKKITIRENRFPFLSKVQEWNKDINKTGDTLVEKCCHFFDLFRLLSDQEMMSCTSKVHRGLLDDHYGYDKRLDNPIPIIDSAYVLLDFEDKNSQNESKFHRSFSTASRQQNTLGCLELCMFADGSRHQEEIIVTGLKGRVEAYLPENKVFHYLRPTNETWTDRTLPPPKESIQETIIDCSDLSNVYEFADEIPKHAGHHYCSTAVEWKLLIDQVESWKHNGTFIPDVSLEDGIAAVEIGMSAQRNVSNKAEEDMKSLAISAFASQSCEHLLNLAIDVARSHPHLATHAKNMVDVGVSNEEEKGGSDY

PpSqgA = target: T3, PpSqgA (Porphyridium purpureum, UniProt A0A5J4YS60); test: sulfoquinovosidase activity assay; type: biochemical; settings: details only in supplement
T3 sequence (A0A5J4YS60 1-369): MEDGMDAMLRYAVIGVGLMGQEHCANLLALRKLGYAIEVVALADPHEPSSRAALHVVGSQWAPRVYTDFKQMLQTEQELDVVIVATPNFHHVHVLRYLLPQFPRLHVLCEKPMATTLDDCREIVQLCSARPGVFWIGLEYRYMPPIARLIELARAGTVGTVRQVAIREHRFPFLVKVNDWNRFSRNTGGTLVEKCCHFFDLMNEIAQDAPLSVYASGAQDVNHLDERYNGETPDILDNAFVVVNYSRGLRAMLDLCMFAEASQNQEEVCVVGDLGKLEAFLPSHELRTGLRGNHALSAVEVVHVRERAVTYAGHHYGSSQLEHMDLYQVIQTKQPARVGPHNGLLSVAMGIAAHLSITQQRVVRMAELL

purified protein = substrate: O=[N+]([O-])c1ccc(O[C@H]2O[C@H](CS(=O)(=O)O)[C@@H](O)[C@H](O)[C@H]2O)cc1; test: purified protein; settings: 10 mM phosphate buffer pH 7.5 (general assay buffer)

NC(=O)c1ccc[n+]([C@@H]2O[C@H](COP(=O)(O)OP(=O)(O)OC[C@H]3O[C@@H](n4cnc5c(N)ncnc54)[C@H](O)[C@@H]3O)[C@@H](O)[C@H]2O)c1 [NAD^+]
LC-MS of SQ formation (RdSqgA; 20 uM SQGro): RdSqgA, revealed it to be an NAD^+-dependent sulfoquinovosidase

O=S(=O)(O)C[C@H]1O[C@H](OC[C@H](O)CO)[C@H](O)[C@@H](O)[C@@H]1O [SQGro]
LC-MS of SQ formation (RdSqgA; 10 mM NAD+): NAD^+-dependent sulfoquinovosidase that acts on SQGro to form SQ | sulfoquinovosidase activity assay (SQ release) (CtSqgA): These homologs have sulfoquinovosidase activity, allowing the liberation of SQ | sulfoquinovosidase activity assay (SQ release) (PpSqgA): These homologs have sulfoquinovosidase activity, allowing the liberation of SQ

B1: AmSqgH (Alteromonas macleodii ATCC 27126) (protein)
chain: MSNAFCVNEPEWNDIKAADITEQPFLSDDKTLIVPTQYGELSLSISQFGLRIQSNVNAADDFGMLTQAPERLSLVLSGDQSHSTLAAGDYRLEVFAAPLHFKLYKNDVLVQQSATDGHFVRQHRLPPFAKTDKGWLLSLELSYDEAVYGLGEKWGKLDKRGQLIRSYNHDALGVNAEKSYKNTPYAWSPEGWNLFVHTPAPVTHGVGYALWSQRAYVCLVEDNVLDMFLFHQDSPAKCLQTYSELTGFAPTPPTWSLGVILSKAYYKDADELLAVAREVREKNMPCDVITLDGRAWQDTDTRFAFEWDPKRYADPQPVIDELKALGFKICVWEYPMISVKNPLYKKAADKGWLIKDKRTGEAYRYEWDLSPFGEVLTPLPDSGILDFTHPEAYEFWKTSHKPLFDLGIDMIKADFGEQLEDDNMLSYSGDSGNRLHNVYSMLYNRCVYEAADAYCKTGPFLFSRSAWTGSQRYPSQWGGDPQADWHGLAASIRGSLSWGMSGGPFFATDIGGFYKDTRDAELYVRWAQASVFSAHMRLHGIGPREPWSYGDAASNAVFEALKLRYKLIPYLKETAEKASQTGLPVQRAMALAFPEQPLSHGFEQQFMCGDDLLVVPCVVPGGKIKYYLPKGKWIRFGTEEVVQGEQYREEILALNDVAVFIQKGSRIVMGPDVQHTDMDMSNTTHWPA
Km (purified protein): 13.0 ± 2.2 mM | kcat (purified protein): 119 ± 19 s⁻¹
